These results are taken from US4032544A, “3-Cyano-4-hydroxy coumarin derivatives” (Beecham Group Limited, priority 1974, dated 1977).

The subject of the assay is PCA response. Put plainly: rat Passive Cutaneous Anaphylaxis Test (PCA test). The class given is in vivo, rat (male Wistar). As to conditions: sc, subcutaneous, sodium salt. As to the method:
The compounds prepared in the preceding examples were tested in the rat Passive Cutaneous Anaphylaxis Test (PCA test), described below. They were administered as their sodium salts either in pH 7.2 phosphate buffer (for soluble salts) or as a suspension in 1% methyl cellulose (for insoluble salts).
Male Wistar rats of 250-300 g, were injected intraperitoneally with 0.5 ml. of Bordatella pertussis vaccine (containing 4× 10^10 dead organism per ml) and subcutaneously with 0.5 ml. of an emulsion of 100 mg. of ovalbumin in 2 ml. of saline and 3 ml. of incomplete Freunds' adjuvant. Rats were bled by cardiac puncture on day 18, the blood was pooled and separated and serum stored at -20° and thawed only once before use.
0.1 ml. of each of six twofold serial dilutions of the serum in 0.9% saline were injected intradermally into separate sites on the shaved dorsal surface of 250-350 g. Male Wistar rats. 72 hours later the animals were challenged by i.v. injection of 0.3 ml. of 1% ovalbumin mixed with 0.1 ml. of a 5% solution of pontamine sky blue dye both in isotonic saline buffered with pH 7.2 Sorenson buffer (P.B.S.). The rats were killed after 20 minutes and the diameter of the blue wheals at the antibody injection sites were measured. The starting dilution of the serum was adjusted so that there was no response, after challenge, at the site of injection of the highest dilution and a maximum response at the two or three lowest dilutions.
Amounts of the compounds were administered to rats by subcutaneous injection, into the nucal region, of a solution of the compound in P.B.S. or as a suspension in 1% methyl cellulose, each amount a test group of six animals at a specified time prior to intravenous challenge with ovalbumin.
% Inhibition of P.C.A.= 100 (1 -a/b)
For those compounds having insoluble sodium salts, the salts were isolated by reaction of the free cyano compound with 2.5N sodium hydroxide and the filtered sodium salt washed free of alkali with water. The dried salts were then administered as a suspension in 1% methyl cellulose.

[1] abbreviates: 0 h, 0 mins. prior to challenge.
[2] abbreviates: 0.5 h, 30 mins. prior to challenge.
Setting [3] is: 10 min, 10 mins. prior to challenge.
Where [4] appears, read: 1 h, 60 mins. prior to challenge.

Each structure is given as a SMILES string.

Broadly, the inhibition in vivo is how much of the control response was suppressed. On to `N#CC1C(=O)c2ccccc2C1=O` [Example 1, 2-Cyano indan-1,3-dione], for which, under setting [1], the inhibition in vivo at 25 mg/kg was found to be 43% and the inhibition in vivo at 100 mg/kg worked out at 64%. Besides, under setting [2], the inhibition in vivo at 25 mg/kg was 8% and the inhibition in vivo at 100 mg/kg amounted to 16%.

With `Cc1ccc2c(c1)C(=O)C(C#N)C2=O` (stereo not drawn) [Example 2, 2-Cyano-5-methyl indan-1,3-dione], the inhibition in vivo at 25 mg/kg under setting [1] stood at 45% and the inhibition in vivo at 25 mg/kg under setting [2] amounted to 15%. The inhibition in vivo at 100 mg/kg worked out at 76% under setting [1] and 35% under setting [2].

On to `Cc1cc2c(cc1C)C(=O)C(C#N)C2=O` [Example 3, 2-Cyano-5,6-dimethyl indan-1,3-dione], for which, under setting [3], the inhibition in vivo at 2.5 mg/kg turned out to be 46%, the inhibition in vivo at 5 mg/kg was 56%, the inhibition in vivo at 10 mg/kg came to 77% and the inhibition in vivo at 20 mg/kg is 92%.

For `Cc1cccc2c1C(=O)C(C#N)C2=O` (stereo not drawn) [Example 4, 2-Cyano-4-methyl indan-1,3-dione], under setting [3], the inhibition in vivo at 5 mg/kg was determined as 21%, the inhibition in vivo at 10 mg/kg came to 25%, the inhibition in vivo at 20 mg/kg was 75% and the inhibition in vivo at 40 mg/kg amounted to 83%.

Regarding `COc1cccc2c1C(=O)C(C#N)C2=O` (stereo not drawn) [Example 5, 2-Cyano-4-methoxy indan-1,3-dione], under setting [3], the inhibition in vivo at 5 mg/kg was found to be 28%, the inhibition in vivo at 10 mg/kg came out at 16%, the inhibition in vivo at 20 mg/kg came out at 57% and the inhibition in vivo at 40 mg/kg turned out to be 81%.

With `N#CC1C(=O)c2cc3ccccc3cc2C1=O` [Example 6, 5,6-Benzo-2-cyano indan-1,3-dione], under setting [3], the inhibition in vivo at 25 mg/kg amounted to 88% and the inhibition in vivo at 100 mg/kg is 70%. In addition, under setting [2], the inhibition in vivo at 25 mg/kg was 27% and the inhibition in vivo at 100 mg/kg was found to be 30%.

For `N#CC1C(=O)c2ccc(Cl)cc2C1=O` (stereo not drawn) [Example 7, 5-Chloro-2-cyano indan-1,3-dione], the inhibition in vivo at 10 mg/kg is, setting by setting: under setting [3], 33%; under setting [2], 21%. In addition, the inhibition in vivo at 25 mg/kg under setting [3] stood at 76% and the inhibition in vivo at 25 mg/kg under setting [2] was 15%.

For the molecule `CCc1cc2c(cc1CC)C(=O)C(C#N)C2=O` [Example 8, 2-Cyano-5,6-diethyl indan-1,3-dione], under setting [3], the inhibition in vivo at 5 mg/kg came out at 74%, the inhibition in vivo at 10 mg/kg came to 90%, the inhibition in vivo at 20 mg/kg was determined as 78% and the inhibition in vivo at 40 mg/kg is 64%.

Consider `N#Cc1c(O)c2ccccc2oc1=O` [Example 9, 3-Cyano-4-hydroxycoumarin], for which the inhibition in vivo at 25 mg/kg was determined as 64% under setting [1] and 30% under setting [2]. Further, the inhibition in vivo at 100 mg/kg runs as follows: under setting [1], 87%; under setting [2], 40%.

Turning to `CCc1cc2c(O)c(C#N)c(=O)oc2cc1C` [Example 10, 3-Cyano-6-ethyl-4-hydroxy-7-methyl coumarin], under setting [3], the inhibition in vivo at 10 mg/kg is 71% and the inhibition in vivo at 25 mg/kg was 67%. Also, under setting [2], the inhibition in vivo at 10 mg/kg stood at 24% and the inhibition in vivo at 25 mg/kg stood at 17%.

In the case of `Cc1cc2oc(=O)c(C#N)c(O)c2cc1C` [Example 11, 3-Cyano-6,7-dimethyl-4-hydroxycoumarin monohydrate], under setting [1], the inhibition in vivo at 25 mg/kg was found to be 51% and the inhibition in vivo at 100 mg/kg is 72%. Under setting [2], the inhibition in vivo at 25 mg/kg turned out to be 16% and the inhibition in vivo at 100 mg/kg came out at 11%.

For the molecule `CCc1cc2oc(=O)c(C#N)c(O)c2cc1CC` [Example 12, 3-Cyano-6,7-diethyl-4-hydroxy coumarin], under setting [3], the inhibition in vivo at 2.5 mg/kg turned out to be 64%, the inhibition in vivo at 5 mg/kg was 72%, the inhibition in vivo at 10 mg/kg stood at 68% and the inhibition in vivo at 20 mg/kg worked out at 93%.

As to `Cc1ccc2oc(=O)c(C#N)c(O)c2c1` [Example 13, 3-Cyano-4-hydroxy-6-methyl coumarin], under setting [1], the inhibition in vivo at 25 mg/kg is 14% and the inhibition in vivo at 100 mg/kg was found to be 40%. Further, under setting [2], the inhibition in vivo at 25 mg/kg was 21% and the inhibition in vivo at 100 mg/kg turned out to be 22%.

On to `Cc1ccc2c(O)c(C#N)c(=O)oc2c1` [Example 14, 3-Cyano-4-hydroxy-7-methyl coumarin], for which, under setting [1], the inhibition in vivo at 25 mg/kg came out at 45% and the inhibition in vivo at 100 mg/kg was found to be 74%. For the same molecule, under setting [2], the inhibition in vivo at 25 mg/kg worked out at 14% and the inhibition in vivo at 100 mg/kg stood at 18%.

In the case of `CCc1ccc2c(O)c(C#N)c(=O)oc2c1` [Example 15, 3-Cyano-7-ethyl-4-hydroxy coumarin], under setting [1], the inhibition in vivo at 25 mg/kg was determined as 34% and the inhibition in vivo at 100 mg/kg came out at 64%. Further, under setting [2], the inhibition in vivo at 25 mg/kg came to 27% and the inhibition in vivo at 100 mg/kg turned out to be 17%.

For the molecule `CCOc1ccc2c(O)c(C#N)c(=O)oc2c1` [Example 16, 3-Cyano-7-ethyloxy-4-hydroxy coumarin monohydrate], under setting [3], the inhibition in vivo at 5 mg/kg came to 59%, the inhibition in vivo at 10 mg/kg was determined as 71%, the inhibition in vivo at 20 mg/kg worked out at 86% and the inhibition in vivo at 40 mg/kg was determined as 73%.

In the case of `N#Cc1c(O)c2cc3ccccc3cc2oc1=O` [Example 17, 3-Cyano-4-hydroxy-2-oxo-2H-naphtho[2,3-b] pyran], under setting [1], the inhibition in vivo at 25 mg/kg was 9% and the inhibition in vivo at 100 mg/kg worked out at 15%. Moreover, under setting [4], the inhibition in vivo at 25 mg/kg worked out at 23% and the inhibition in vivo at 100 mg/kg is 18%.

As for `N#Cc1c(O)c2cc3c(cc2oc1=O)CCCC3` [Example 18, 3-Cyano-4-hydroxy-2-oxo-6,7,8,9-tetrahydro-2H-naphtho [2,3-b] pyran], the inhibition in vivo at 1 mg/kg (10 min, 1 mg/kg, 10 mins. prior to challenge) was found to be 2%. Also, under “10 min, 2 mg/kg, 10 mins. prior to challenge”, the inhibition in vivo at 2 mg/kg worked out at 22%. Moreover, where the note is “10 min, 4 mg/kg, 10 mins. prior to challenge”, the inhibition in vivo at 4 mg/kg turned out to be 52%. For the same molecule, the inhibition in vivo at 8 mg/kg (10 min, 8 mg/kg, 10 mins. prior to challenge) is 67%.

Take `Cc1cccc2c(O)c(C#N)c(=O)oc12` [Example 19, 3-Cyano-4-hydroxy-8-methylcoumarin monohydrate]: the inhibition in vivo at 25 mg/kg came out at 48% under setting [1] and 23% under setting [2]. The inhibition in vivo at 100 mg/kg reads like this: under setting [1], 67%; under setting [2], 35%.

On to `COc1ccc2oc(=O)c(C#N)c(O)c2c1` [Example 20, 3-Cyano-4-hydroxy-6-methyloxycoumarin], for which the inhibition in vivo at 25 mg/kg reads like this: under setting [1], 54%; under setting [2], 29%. Further, the inhibition in vivo at 100 mg/kg under setting [1] was determined as 72% and the inhibition in vivo at 100 mg/kg under setting [2] worked out at 36%.

On to `Cc1ccc2c(O)c(C#N)c(=O)oc2c1C` [Example 21, 3-Cyano-7,8-dimethyl-4-hydroxycoumarin monohydrate], for which, under setting [3], the inhibition in vivo at 2.5 mg/kg stood at 20%, the inhibition in vivo at 5 mg/kg is 39%, the inhibition in vivo at 10 mg/kg is 65% and the inhibition in vivo at 20 mg/kg came to 97%.
